The target in this assay is T1, rh integrin α4β7 (Homo sapiens, UniProt P13612+P26010).
T1 construct: purchased R&D Systems 5397-A30
T1 sequence (P13612 34-977 limits assumed): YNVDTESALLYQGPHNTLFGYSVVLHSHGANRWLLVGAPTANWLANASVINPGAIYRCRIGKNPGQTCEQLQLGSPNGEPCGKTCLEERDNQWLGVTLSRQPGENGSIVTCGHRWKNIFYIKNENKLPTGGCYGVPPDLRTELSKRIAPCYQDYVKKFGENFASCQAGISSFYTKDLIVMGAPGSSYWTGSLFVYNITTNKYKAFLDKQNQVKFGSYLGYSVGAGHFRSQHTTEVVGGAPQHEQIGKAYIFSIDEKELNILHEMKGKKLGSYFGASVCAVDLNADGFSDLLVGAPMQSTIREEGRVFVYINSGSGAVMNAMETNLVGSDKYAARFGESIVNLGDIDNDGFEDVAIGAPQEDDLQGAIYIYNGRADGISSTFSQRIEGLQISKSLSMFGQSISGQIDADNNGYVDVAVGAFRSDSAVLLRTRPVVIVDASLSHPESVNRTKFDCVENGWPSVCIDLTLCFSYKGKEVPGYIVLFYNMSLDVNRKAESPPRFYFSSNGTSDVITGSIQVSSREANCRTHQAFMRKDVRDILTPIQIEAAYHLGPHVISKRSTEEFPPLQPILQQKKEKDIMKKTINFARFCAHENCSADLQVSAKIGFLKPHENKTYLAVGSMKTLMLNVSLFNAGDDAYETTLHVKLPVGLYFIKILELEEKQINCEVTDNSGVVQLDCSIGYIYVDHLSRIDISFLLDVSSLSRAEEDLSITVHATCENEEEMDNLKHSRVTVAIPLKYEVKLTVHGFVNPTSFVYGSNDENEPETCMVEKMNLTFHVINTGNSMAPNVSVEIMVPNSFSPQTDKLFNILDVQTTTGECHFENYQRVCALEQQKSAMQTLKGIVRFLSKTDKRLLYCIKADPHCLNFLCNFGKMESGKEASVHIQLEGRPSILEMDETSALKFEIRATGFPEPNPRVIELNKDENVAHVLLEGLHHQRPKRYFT
T1 sequence (P26010 20-723 limits assumed): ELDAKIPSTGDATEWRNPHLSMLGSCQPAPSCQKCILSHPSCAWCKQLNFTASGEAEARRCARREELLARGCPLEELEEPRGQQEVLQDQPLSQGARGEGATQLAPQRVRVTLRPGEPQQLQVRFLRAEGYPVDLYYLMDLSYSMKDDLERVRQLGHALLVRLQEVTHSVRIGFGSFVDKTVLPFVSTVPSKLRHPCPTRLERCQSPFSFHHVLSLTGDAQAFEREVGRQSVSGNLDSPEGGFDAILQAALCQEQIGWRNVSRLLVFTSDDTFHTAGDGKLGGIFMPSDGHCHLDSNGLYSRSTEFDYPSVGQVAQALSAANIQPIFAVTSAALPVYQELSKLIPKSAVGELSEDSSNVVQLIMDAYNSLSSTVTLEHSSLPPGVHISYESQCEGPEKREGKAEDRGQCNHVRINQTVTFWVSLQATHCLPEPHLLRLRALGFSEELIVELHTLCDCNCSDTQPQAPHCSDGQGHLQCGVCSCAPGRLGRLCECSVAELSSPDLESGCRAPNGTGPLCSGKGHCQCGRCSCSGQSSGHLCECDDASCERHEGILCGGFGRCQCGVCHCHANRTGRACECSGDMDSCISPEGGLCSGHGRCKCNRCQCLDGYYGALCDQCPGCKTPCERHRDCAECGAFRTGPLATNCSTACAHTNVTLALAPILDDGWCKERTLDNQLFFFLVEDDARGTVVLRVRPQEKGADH
In words: α4β7-MAdCAM Competition ELISA. It is filed as binding. Particulars: thioether peptide dimers, Table 7; read-out: ELISA A4B7. In a few lines: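 Recombinant human α4β7 captured on nickel-coated plates, then incubated 1 h at room temperature with serially diluted peptides (final top 10 μM) and 10 nM final MAdCAM-1 in Tris pH 7.6 buffer with 1 mM MnCl2 or MgCl2. Bound MAdCAM-1 detected with anti-human IgG1-HRP and TMB, absorbance at 450 nm.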

SMILES strings stand for the structures. *1 amine or outer side, *2 acyl side, *3 side chain or, on linkers, in order; H or OH if unused. Where a SMILES comes first, the peptide text is derived from it. Bridges are numbered along the chain shown (N, C = ends). Roman numbers before positions name the chains, in order. [ ]: non-standard residue; d: D form. Phe(4-CF3) = N[C@@H](Cc1ccc(C(F)(F)F)cc1)C(=O)O; Bip = N[C@@H](Cc1ccc(-c2ccccc2)cc1)C(=O)O; 1Nal = N[C@@H](Cc1cccc2ccccc12)C(=O)O; Diglycolyl = O=C(COCC(=O)[*:2])[*:1]; NMeR = CN[C@@H](CCCNC(=N)N)C(=O)O; Tic = O=C(O)[C@@H]1Cc2ccccc2CN1; X1 = O=C(c1ccccc1C[*:2])[*:1]; Pen = CC(C)(S)[C@H](N)C(=O)O

As to `CC(C)C[C@@H]1NC(=O)[C@H]([C@@H](C)O)NC(=O)[C@H](CC(=O)O)NC(=O)[C@H](CO)NC(=O)[C@H](CCCNC(=N)N)N(C)C(=O)c2ccccc2CSC(C)(C)[C@@H](C(=O)N[C@@H](Cc2cccc3ccccc23)C(=O)N[C@H](CCC(=O)O)C(=O)N[C@H](CCCCNC(=O)COCC(=O)NCCCC[C@@H](NC(=O)[C@@H](CCC(=O)O)NC(=O)[C@H](Cc2cccc3ccccc23)NC(=O)[C@H]2NC(=O)[C@H](CC(C)C)NC(=O)[C@H]([C@@H](C)O)NC(=O)[C@H](CC(=O)O)NC(=O)[C@H](CO)NC(=O)[C@H](CCCNC(=N)N)N(C)C(=O)c3ccccc3CSC2(C)C)C(N)=O)C(N)=O)NC1=O` [compound 158] (I: [NMeR]SDTL[Pen][1Nal][dE][dK]-NH2 / II: [NMeR]SDTL[Pen][1Nal][dE][dK]-NH2; linker I:9-II:9 via Diglycolyl; linker I:N-I:6, II:N-II:6 via X1), the IC50 was under 25 nM.

In the case of `CC(C)C[C@@H]1NC(=O)[C@H]([C@@H](C)O)NC(=O)[C@H](CC(=O)O)NC(=O)[C@H](CO)NC(=O)[C@H](CCCNC(=N)N)N(C)C(=O)c2ccccc2CSC(C)(C)[C@@H](C(=O)N[C@@H](Cc2ccc(C(F)(F)F)cc2)C(=O)N[C@@H](CCC(=O)O)C(=O)N[C@H](CCCCNC(=O)COCC(=O)NCCCC[C@@H](NC(=O)[C@H](CCC(=O)O)NC(=O)[C@H](Cc2ccc(C(F)(F)F)cc2)NC(=O)[C@H]2NC(=O)[C@H](CC(C)C)NC(=O)[C@H]([C@@H](C)O)NC(=O)[C@H](CC(=O)O)NC(=O)[C@H](CO)NC(=O)[C@H](CCCNC(=N)N)N(C)C(=O)c3ccccc3CSC2(C)C)C(N)=O)C(N)=O)NC1=O` [compound 166] (I: [NMeR]SDTL[Pen][Phe(4-CF3)]E[dK]-NH2 / II: [NMeR]SDTL[Pen][Phe(4-CF3)]E[dK]-NH2; linker I:9-II:9 via Diglycolyl; linker I:N-I:6, II:N-II:6 via X1), the IC50 is under 25 nM.

Consider `CC(C)C[C@@H]1NC(=O)[C@H]([C@@H](C)O)NC(=O)[C@H](CC(=O)O)NC(=O)[C@H](CO)NC(=O)[C@H](CCCNC(=N)N)N(C)C(=O)c2ccccc2CSC(C)(C)[C@@H](C(=O)N[C@@H](Cc2cccc3ccccc23)C(=O)N[C@@H](CCC(=O)O)C(=O)N[C@H](CCCCNC(=O)COCC(=O)NCCCC[C@@H](NC(=O)[C@H](CCC(=O)O)NC(=O)[C@H](Cc2cccc3ccccc23)NC(=O)[C@H]2NC(=O)[C@H](CC(C)C)NC(=O)[C@H]([C@@H](C)O)NC(=O)[C@H](CC(=O)O)NC(=O)[C@H](CO)NC(=O)[C@H](CCCNC(=N)N)N(C)C(=O)c3ccccc3CSC2(C)C)C(N)=O)C(N)=O)NC1=O` [compound 167] (I: [NMeR]SDTL[Pen][1Nal]E[dK]-NH2 / II: [NMeR]SDTL[Pen][1Nal]E[dK]-NH2; linker I:9-II:9 via Diglycolyl; linker I:N-I:6, II:N-II:6 via X1), for which the IC50 was under 25 nM.

As to `CC(C)C[C@@H]1NC(=O)[C@H]([C@@H](C)O)NC(=O)[C@H](CC(=O)O)NC(=O)[C@H](CO)NC(=O)[C@H](CCCNC(=N)N)N(C)C(=O)c2ccccc2CSC(C)(C)[C@@H](C(=O)N[C@@H](Cc2ccc(-c3ccccc3)cc2)C(=O)N[C@H](CCC(=O)O)C(=O)N[C@H](CCCCN)C(N)=O)NC1=O` [compound 178] (HELM PEPTIDE1{[meR].S.D.T.L.[Pen].[O=C([C@H](Cc1ccc(-c2ccccc2)cc1)N[*:1])[*:2]].[dE].[dK].[am]}|CHEM1{[O=C(c1ccccc1C[*:2])[*:1]]}$PEPTIDE1,CHEM1,1:R1-1:R1|PEPTIDE1,CHEM1,6:R3-1:R2$$$V2.0), the IC50 is under 25 nM.

In the case of `CC(C)C[C@@H]1NC(=O)[C@H]([C@@H](C)O)NC(=O)[C@H](CC(=O)O)NC(=O)[C@H](CO)NC(=O)[C@H](CCCNC(=N)N)N(C)C(=O)c2ccccc2CSC[C@@H](C(=O)N2Cc3ccccc3C[C@H]2C(=O)N[C@H](CCC(=O)O)C(=O)N[C@H](CCCCNC(=O)COCC(=O)NCCCC[C@@H](NC(=O)[C@@H](CCC(=O)O)NC(=O)[C@@H]2Cc3ccccc3CN2C(=O)[C@@H]2CSCc3ccccc3C(=O)N(C)[C@@H](CCCNC(=N)N)C(=O)N[C@@H](CO)C(=O)N[C@@H](CC(=O)O)C(=O)N[C@@H]([C@@H](C)O)C(=O)N[C@@H](CC(C)C)C(=O)N2)C(N)=O)C(N)=O)NC1=O` [compound 184] (I: [NMeR]SDTLC[Tic][dE][dK]-NH2 / II: [NMeR]SDTLC[Tic][dE][dK]-NH2; linker I:9-II:9 via Diglycolyl; linker I:N-I:6, II:N-II:6 via X1), the IC50 was under 25 nM.

As to `CC(C)C[C@@H]1NC(=O)[C@H]([C@@H](C)O)NC(=O)[C@H](CC(=O)O)NC(=O)[C@H](CO)NC(=O)[C@H](CCCNC(=N)N)N(C)C(=O)c2ccccc2CSC(C)(C)[C@@H](C(=O)N[C@@H](Cc2ccccc2)C(=O)N[C@H](CCC(=O)O)C(=O)N[C@H](CCCCNC(=O)COCC(=O)NCCCC[C@@H](NC(=O)[C@@H](CCC(=O)O)NC(=O)[C@H](Cc2ccccc2)NC(=O)[C@H]2NC(=O)[C@H](CC(C)C)NC(=O)[C@H]([C@@H](C)O)NC(=O)[C@H](CC(=O)O)NC(=O)[C@H](CO)NC(=O)[C@H](CCCNC(=N)N)N(C)C(=O)c3ccccc3CSC2(C)C)C(=O)O)C(=O)O)NC1=O` [compound 204] (I: [NMeR]SDTL[Pen]F[dE][dK]-OH / II: [NMeR]SDTL[Pen]F[dE][dK]-OH; linker I:9-II:9 via Diglycolyl; linker I:N-I:6, II:N-II:6 via X1), the IC50 is under 25 nM.

Regarding `CC(C)C[C@@H]1NC(=O)[C@H]([C@@H](C)O)NC(=O)[C@H](CC(=O)O)NC(=O)[C@H](CO)NC(=O)[C@H](CCCNC(=N)N)N(C)C(=O)c2ccccc2CSC[C@@H](C(=O)N2Cc3ccccc3C[C@H]2C(=O)N[C@H](CCC(=O)O)C(=O)N[C@H](CCCCNC(=O)COCC(=O)NCCCC[C@@H](NC(=O)[C@@H](CCC(=O)O)NC(=O)[C@@H]2Cc3ccccc3CN2C(=O)[C@@H]2CSCc3ccccc3C(=O)N(C)[C@@H](CCCNC(=N)N)C(=O)N[C@@H](CO)C(=O)N[C@@H](CC(=O)O)C(=O)N[C@@H]([C@@H](C)O)C(=O)N[C@@H](CC(C)C)C(=O)N2)C(=O)O)C(=O)O)NC1=O` [compound 207] (I: [NMeR]SDTLC[Tic][dE][dK]-OH / II: [NMeR]SDTLC[Tic][dE][dK]-OH; linker I:9-II:9 via Diglycolyl; linker I:N-I:6, II:N-II:6 via X1), the IC50 was under 25 nM.

Take `CC(C)C[C@@H]1NC(=O)[C@H]([C@@H](C)O)NC(=O)[C@H](CC(=O)O)NC(=O)[C@H](CO)NC(=O)[C@H](CCCNC(=N)N)N(C)C(=O)c2ccccc2CSC(C)(C)[C@@H](C(=O)N[C@@H](Cc2ccc(-c3ccccc3)cc2)C(=O)N[C@H](CCC(=O)O)C(=O)N[C@H](CCCCNC(=O)COCC(=O)NCCCC[C@@H](NC(=O)[C@@H](CCC(=O)O)NC(=O)[C@H](Cc2ccc(-c3ccccc3)cc2)NC(=O)[C@H]2NC(=O)[C@H](CC(C)C)NC(=O)[C@H]([C@@H](C)O)NC(=O)[C@H](CC(=O)O)NC(=O)[C@H](CO)NC(=O)[C@H](CCCNC(=N)N)N(C)C(=O)c3ccccc3CSC2(C)C)C(=O)O)C(=O)O)NC1=O` [compound 208] (I: [NMeR]SDTL[Pen][Bip][dE][dK]-OH / II: [NMeR]SDTL[Pen][Bip][dE][dK]-OH; linker I:9-II:9 via Diglycolyl; linker I:N-I:6, II:N-II:6 via X1): the IC50 was under 25 nM.

The record behind these values is patent publication US20260217767A1, “NOVEL A4B7 THIOETHER PEPTIDE DIMER ANTAGONISTS” (Protagonist Therapeutics, Inc., priority 2014, published 2026).
